Data as given in ChEMBL document CHEMBL3045468, “I2 catalyzed FriedelCrafts alkylation reaction of substituted anilines with ninhydrin: formation of novel products and their antimicrobial evaluation” (2013).
In brackets after ≈: the same amount, converted by molar mass. Activity calls are given as the source filed them. The calls are words filed in the database; no cut-off is given here.

What was measured:
Pseudomonas aeruginosa = experiment: Antibacterial activity against Pseudomonas aeruginosa 71 clinical isolate assessed as growth inhibition at 1 mg/ml after 24 hr by NCCLS agar diffusion method; type: functional
Bacillus pumilus = experiment: Antibacterial activity against Bacillus pumilus 11778 clinical isolate assessed as growth inhibition at 1 mg/ml after 24 hr by NCCLS agar diffusion method; type: functional; conditions: for zone of inhibition at 1000 µg/mL: Bacillus pumilus, 11778, 24 h, read-out: DIZ
Escherichia coli [1] = experiment: Antibacterial activity against Escherichia coli 319 clinical isolate assessed as growth inhibition at 1 mg/ml after 24 hr by NCCLS agar diffusion method; type: functional; conditions: for zone of inhibition at 1000 µg/mL: Escherichia coli, 319, 24 h, read-out: DIZ
Micrococcus luteus = experiment: Antibacterial activity against Micrococcus luteus ATCC 9341 clinical isolate assessed as growth inhibition at 1 mg/ml after 24 hr by NCCLS agar diffusion method; type: functional
Shigella dysenteriae = experiment: Antibacterial activity against Shigella dysenteriae 15 clinical isolate assessed as growth inhibition at 1 mg/ml after 24 hr by NCCLS agar diffusion method; type: functional; conditions: for zone of inhibition at 1000 µg/mL: Shigella dysenteriae, 15, 24 h, read-out: DIZ
Staphylococcus aureus = experiment: Antibacterial activity against Staphylococcus aureus 29737 clinical isolate assessed as growth inhibition at 1 mg/ml after 24 hr by NCCLS agar diffusion method; type: functional
Klebsiella pneumoniae = experiment: Antibacterial activity against Klebsiella pneumoniae J/I/4 clinical isolate assessed as growth inhibition at 1 mg/ml after 24 hr by NCCLS agar diffusion method; type: functional; conditions: for zone of inhibition at 1000 µg/mL: J/I/4, 24 h, read-out: DIZ
Vibrio cholerae [2] = experiment: Antibacterial activity against Vibrio cholerae 759 clinical isolate assessed as growth inhibition at 1 mg/ml after 24 hr by NCCLS agar diffusion method; type: functional; conditions: for zone of inhibition at 1000 µg/mL: Vibrio cholerae, 759, 24 h, read-out: DIZ
Candida tropicalis [3] = experiment: Antifungal activity against Candida tropicalis clinical isolate assessed as growth inhibition at 1 mg/ml after 96 hr by NCCLS agar diffusion method; type: functional; conditions: read-out: DIZ
Candida albicans [4] = experiment: Antifungal activity against Candida albicans clinical isolate assessed as growth inhibition at 1 mg/ml after 96 hr by NCCLS agar diffusion method; type: functional; conditions: read-out: DIZ
Aspergillus niger [5] = experiment: Antifungal activity against Aspergillus niger clinical isolate assessed as growth inhibition at 1 mg/ml after 96 hr by NCCLS agar diffusion method; type: functional; conditions: read-out: DIZ
Candida tropicalis [6] = experiment: Antifungal activity against Candida tropicalis clinical isolate assessed as growth inhibition after 96 hr by agar dilution method; type: functional
Candida albicans [7] = experiment: Antifungal activity against Candida albicans clinical isolate assessed as growth inhibition after 96 hr by agar dilution method; type: functional
Aspergillus niger [8] = experiment: Antifungal activity against Aspergillus niger clinical isolate assessed as growth inhibition after 96 hr by agar dilution method; type: functional
Escherichia coli [9] = experiment: Antibacterial activity against Escherichia coli 319 clinical isolate assessed as morphological changes at MIC after 24 hr by scanning electron microscopic analysis; type: functional, organism-based
Vibrio cholerae [10] = experiment: Bactericidal activity against Vibrio cholerae 759 clinical isolate assessed as reduction of viable CFU count at MIC measured up to 48 hr relative to untreated control; type: functional, organism-based
Escherichia coli [11] = experiment: Bactericidal activity against Escherichia coli 319 clinical isolate assessed as reduction of viable CFU count at MIC measured up to 48 hr relative to untreated control; type: functional, organism-based
Cryptococcus neoformans [12] = experiment: Antifungal activity against Cryptococcus neoformans clinical isolate assessed as growth inhibition at 1 mg/ml after 96 hr by NCCLS agar diffusion method; type: functional; conditions: read-out: DIZ
Cryptococcus neoformans [13] = experiment: Antifungal activity against Cryptococcus neoformans clinical isolate assessed as growth inhibition after 96 hr by agar dilution method; type: functional

Row | SMILES | growth inhibition (GI) (Pseudomonas aeruginosa) | zone of inhibition at 1000 µg/mL (Bacillus pumilus) | growth inhibition (GI) (Escherichia coli [1]) | growth inhibition (GI) (Micrococcus luteus) | growth inhibition (GI) (Shigella dysenteriae) | growth inhibition (GI) (Staphylococcus aureus) | zone of inhibition at 1000 µg/mL (Klebsiella pneumoniae) | zone of inhibition at 1000 µg/mL (Vibrio cholerae [2]) | zone of inhibition at 1000 µg/mL (Escherichia coli [1]) | zone of inhibition at 1000 µg/mL (Shigella dysenteriae) | zone of inhibition at 1000 µg/mL (Aspergillus niger [5]) | MIC (Candida tropicalis [6]) | MIC (Candida albicans [7]) | MIC (Aspergillus niger [8]) | growth inhibition (GI) (Klebsiella pneumoniae) | growth inhibition (GI) (Vibrio cholerae [2]) | growth inhibition (GI) (Bacillus pumilus) | other results
1 | COc1cc(C2(c3ccc(N)c(OC)c3)C(=O)c3ccccc3C2=O)ccc1N | inactive | 8 mm | inactive | inactive | inactive | inactive | 7 mm | 7 mm |  |  |  |  |  |  |  |  |  | 
2 | Cc1cc(C2(c3ccc(N)c(C)c3)C(=O)c3ccccc3C2=O)ccc1N | inactive | 7 mm |  | inactive |  | inactive |  | 8 mm | 7 mm | 7 mm | 7.6 mm | 2000 mg/L (≈ 5610 µM) | 1000 mg/L (≈ 2810 µM) | 1000 mg/L (≈ 2810 µM) | inactive |  |  | zone of inhibition at 1000 µg/mL (Candida tropicalis [3]): 8 mm; zone of inhibition at 1000 µg/mL (Candida albicans [4]): 10 mm; Activity (Escherichia coli [9]): Active; Activity (Vibrio cholerae [10]): Active; Activity (Escherichia coli [11]): Active
3 | Cc1cc(C2(c3cc(C)c(N)c(C)c3)C(=O)c3ccccc3C2=O)cc(C)c1N | inactive | 9 mm | inactive | inactive | inactive | inactive |  |  |  |  |  |  |  |  | inactive | inactive |  | 
4 | Nc1ccc(C2(c3ccc(N)cc3)C(=O)c3ccccc3C2=O)cc1 | inactive | 8 mm |  | inactive |  | inactive | 7 mm |  | 6 mm | 7 mm | 10 mm | 1000 mg/L (≈ 3050 µM) | 1000 mg/L (≈ 3050 µM) | 1000 mg/L (≈ 3050 µM) |  | inactive |  | zone of inhibition at 1000 µg/mL (Candida tropicalis [3]): 8.2 mm; zone of inhibition at 1000 µg/mL (Candida albicans [4]): 9 mm
5 | CNc1ccc(C2(c3ccc(NC)cc3)C(=O)c3ccccc3C2=O)cc1 | inactive |  |  | inactive | inactive | inactive | 7.5 mm | 8 mm | 7 mm |  |  |  |  |  |  |  | inactive | 
6 | Nc1c(Cl)cc(Cl)cc1C1(Nc2ccc(Cl)cc2Cl)C(=O)c2ccccc2C1=O | inactive |  |  | inactive |  | inactive | 7 mm | 7 mm | 8 mm | 7 mm | 8 mm | 1000 mg/L (≈ 2150 µM) |  | 1000 mg/L (≈ 2150 µM) |  |  | inactive | zone of inhibition at 1000 µg/mL (Cryptococcus neoformans [12]): 8 mm
7 | Nc1ccc(C2(c3ccc(N)c([N+](=O)[O-])c3)C(=O)c3ccccc3C2=O)cc1[N+](=O)[O-] | inactive |  | inactive | inactive | inactive |  |  |  |  |  |  |  |  |  | inactive | inactive | inactive | zone of inhibition at 1000 µg/mL (Staphylococcus aureus; Staphylococcus aureus, 29737, 24 h, read-out: DIZ): 8 mm
8 | Cc1ccc(NC2(c3cc(C)c(C)cc3N)C(=O)c3ccccc3C2=O)cc1C | inactive |  |  | inactive | inactive | inactive |  |  | 7 mm |  |  |  |  |  | inactive | inactive | inactive | 
9 | OC(Cn1cncn1)(Cn1cncn1)c1ccc(F)cc1F [FLUCONAZOLE] |  |  |  |  |  |  |  |  |  |  |  | 8 mg/L (≈ 26.1 µM) | 4 mg/L (≈ 13.1 µM) | 10 mg/L (≈ 32.7 µM) |  |  |  | MIC (Cryptococcus neoformans [13]): 8 mg/L (≈ 26.1 µM)
